Several values for one entry are separate records, joined by “and”; a condition that tells them apart may be missing. Equal entries are not always repeated. ± gives the expanded uncertainty stated by the source.
Settings: Liquid, Transpiration method

CCC(C)(C)OC(C)=O [1,1-dimethylpropyl acetate]
Settings	vapor or sublimation pressure [kPa]
273.7 K	0.3855 ± 0.029
274 K	0.4017 ± 0.03
275.5 K	0.4449 ± 0.032
277.5 K	0.5063 ± 0.036
278.6 K	0.5244 ± 0.037
279.5 K	0.5659 ± 0.04
281.6 K	0.6399 ± 0.045
283.5 K	0.716 ± 0.051
283.6 K	0.7353 ± 0.052
286.6 K	0.878 ± 0.062
288.4 K	0.9539 ± 0.067
289.7 K	1.053 ± 0.074
292.7 K	1.218 ± 0.086
293.5 K	1.336 ± 0.095
295.8 K	1.492 ± 0.1
298.4 K	1.698 ± 0.13
298.8 K	1.785 ± 0.13
301.9 K	2.079 ± 0.15
303.4 K	2.33 ± 0.16
304.9 K	2.418 ± 0.17
307.9 K	2.829 ± 0.21
308.4 K	2.994 ± 0.22

CCCC(=O)OC(C)(C)CC [1,1-dimethylpropyl butanoate]
Settings	vapor or sublimation pressure [kPa]
274.5 K	0.04772 ± 0.0035
276.5 K	0.05746 ± 0.0041
278.2 K	0.06508 ± 0.0046
278.6 K	0.06692 ± 0.0047
280.6 K	0.07832 ± 0.0056
282.6 K	0.09058 ± 0.0065
283.3 K	0.09732 ± 0.0069
285.6 K	0.1128 ± 0.0081
288.2 K	0.1456 ± 0.01
288.7 K	0.1441 ± 0.01
291.7 K	0.1788 ± 0.013
293.2 K	0.2021 ± 0.014
294.8 K	0.22 ± 0.016
297.4 K	0.2678 ± 0.019
298.2 K	0.2935 ± 0.021
300.4 K	0.3315 ± 0.024
303.2 K	0.4074 ± 0.029
303.5 K	0.402 ± 0.028
306.5 K	0.4906 ± 0.035
308.2 K	0.5588 ± 0.04
309.5 K	0.5946 ± 0.042

CCC(=O)OC(C)(C)CC [1,1-dimethylpropyl propanoate]
Settings	vapor or sublimation pressure [kPa]
273.9 K	0.1147 ± 0.0082
274.9 K	0.123 ± 0.0088
276.9 K	0.1423 ± 0.01
278.9 K	0.1651 ± 0.012
281 K	0.1902 ± 0.013
283 K	0.2208 ± 0.016
286 K	0.2725 ± 0.019
289.1 K	0.3316 ± 0.024
292.2 K	0.4061 ± 0.029
295.2 K	0.4966 ± 0.035
298.2 K	0.5971 ± 0.042
301.2 K	0.7239 ± 0.051
304.3 K	0.8484 ± 0.06
307.4 K	1.025 ± 0.072
310.4 K	1.237 ± 0.087

CC(C)COC(=O)C(C)C [2-methylpropyl 2-methylpropanoate]
Settings	vapor or sublimation pressure [kPa]
274.2 K	0.1054 ± 0.0076
276.2 K	0.1253 ± 0.009
278.2 K	0.1479 ± 0.011
283.2 K	0.2118 ± 0.015
288.2 K	0.2962 ± 0.021
293.2 K	0.4346 ± 0.031
298.2 K	0.6003 ± 0.043
303.3 K	0.8274 ± 0.059
308.4 K	1.137 ± 0.08
311.2 K	1.363 ± 0.096
313.4 K	1.497 ± 0.11
316.2 K	1.851 ± 0.13
319.2 K	2.224 ± 0.16

CCCCOC(=O)C(C)CC (centres undefined) [butanoic acid, 2-methyl-, butyl ester]
Settings	vapor or sublimation pressure [kPa]
274.2 K	0.02305 ± 0.0016
276.2 K	0.02587 ± 0.0019
278.2 K	0.03181 ± 0.0023
280.2 K	0.0362 ± 0.0026
283.2 K	0.04723 ± 0.0034
288.1 K	0.06951 ± 0.005
293.1 K	0.1043 ± 0.0075
298.1 K	0.1517 ± 0.011
303.2 K	0.2142 ± 0.015
308.2 K	0.3099 ± 0.022
313.3 K	0.4305 ± 0.031
316.2 K	0.5454 ± 0.039
319.2 K	0.6694 ± 0.047

CCCCOC(=O)C(C)(C)C [butyl 2,2-dimethylpropanoate]
Settings	vapor or sublimation pressure [kPa]
273.6 K	0.0462 ± 0.0035
273.9 K	0.04812 ± 0.0035
274.7 K	0.0517 ± 0.0037
276.5 K	0.06076 ± 0.0043
278.4 K	0.06784 ± 0.0049
282.6 K	0.09472 ± 0.0068
283.2 K	0.09954 ± 0.0071
285.6 K	0.1239 ± 0.0088
288.3 K	0.1447 ± 0.011
288.7 K	0.1514 ± 0.011
291.7 K	0.1872 ± 0.013
293.2 K	0.2073 ± 0.015
294.8 K	0.2343 ± 0.017
297.8 K	0.2886 ± 0.02
298.1 K	0.2847 ± 0.02
300.8 K	0.3473 ± 0.025
303.3 K	0.4149 ± 0.029
303.9 K	0.429 ± 0.03
307 K	0.5176 ± 0.036
308.3 K	0.5552 ± 0.039
309 K	0.596 ± 0.043
313.3 K	0.7473 ± 0.053

COC(=O)CC(C)(C)C [methyl 3,3-dimethylbutanoate]
Settings	vapor or sublimation pressure [kPa]
273.9 K	0.3046 ± 0.022
274.4 K	0.3169 ± 0.023
275.9 K	0.3519 ± 0.025
277.4 K	0.3954 ± 0.028
278.7 K	0.436 ± 0.031
279.5 K	0.4645 ± 0.033
281.5 K	0.5226 ± 0.037
282.5 K	0.5675 ± 0.04
283.3 K	0.5937 ± 0.042
285.5 K	0.6878 ± 0.049
288.2 K	0.8223 ± 0.057
288.6 K	0.8158 ± 0.057
291.6 K	0.9977 ± 0.071
293.2 K	1.131 ± 0.08
294.6 K	1.195 ± 0.084
297.7 K	1.436 ± 0.11
298.2 K	1.533 ± 0.11
301.8 K	1.854 ± 0.13
303.2 K	2.042 ± 0.14
303.8 K	2.089 ± 0.15
306.9 K	2.498 ± 0.18
308.2 K	2.737 ± 0.19
309 K	2.783 ± 0.19
313.2 K	3.591 ± 0.25

CCCC(=O)OC [methyl butanoate]
Settings	vapor or sublimation pressure
274.3 K	1.06 ± 0.077 kPa
276.4 K	1.292 ± 0.092 kPa
278.2 K	1.397 ± 0.098 kPa
279.4 K	1.492 ± 0.1 kPa
281.3 K	1.627 ± 0.12 kPa
281.6 K	1.705 ± 0.13 kPa
283.4 K	1.854 ± 0.15 kPa
283.7 K	1.965 ± 0.16 kPa
285.5 K	2.102 ± 0.17 kPa
285.8 K	2.24 ± 0.18 kPa
288.3 K	2.537 ± 0.18 kPa and 2.523 ± 0.18 kPa and 2.466 ± 0.17 kPa
290.3 K	2.927 ± 0.21 kPa
291.2 K	3.085 ± 0.22 kPa and 2.937 ± 0.21 kPa
292.2 K	3.214 ± 0.23 kPa
293.2 K	3.382 ± 0.24 kPa
294.3 K	3.717 ± 0.27 kPa
295.3 K	4.065 ± 0.29 kPa
298.1 K	4.479 ± 0.32 kPa
300.2 K	5.224 ± 0.37 kPa
301.2 K	5.303 ± 0.37 kPa
303.2 K	5.697 ± 0.4 kPa

CCCCCCC(=O)OC [methyl heptanoate]
Settings	vapor or sublimation pressure [kPa]
278.1 K	0.03453 ± 0.0025
283.5 K	0.05365 ± 0.0038
286.4 K	0.06767 ± 0.0048
288.3 K	0.0791 ± 0.0056
290.3 K	0.09122 ± 0.0065
293.2 K	0.1164 ± 0.0083
296.2 K	0.1424 ± 0.01
298.2 K	0.1642 ± 0.012
300.3 K	0.1892 ± 0.013
303.1 K	0.2326 ± 0.017
306.1 K	0.2838 ± 0.02
308.2 K	0.3321 ± 0.024
310.2 K	0.3804 ± 0.027
313.2 K	0.4658 ± 0.033

CCCCCC(=O)OC [methyl hexanoate]
Settings	vapor or sublimation pressure
280.7 K	0.1387 ± 0.0099 kPa
283.6 K	0.1707 ± 0.012 kPa
284.6 K	0.1839 ± 0.013 kPa
286.6 K	0.2147 ± 0.015 kPa
287.6 K	0.2219 ± 0.016 kPa
289.5 K	0.2598 ± 0.018 kPa
290.5 K	0.2793 ± 0.02 kPa and 0.2693 ± 0.019 kPa
292.5 K	0.3111 ± 0.022 kPa
293.3 K	0.3367 ± 0.024 kPa
293.4 K	0.3489 ± 0.025 kPa
293.5 K	0.3435 ± 0.024 kPa
295.4 K	0.3851 ± 0.027 kPa
296.4 K	0.4226 ± 0.03 kPa
298.3 K	0.4594 ± 0.033 kPa
298.4 K	0.4697 ± 0.033 kPa
300.3 K	0.5403 ± 0.038 kPa
303.3 K	0.6501 ± 0.046 kPa
304.3 K	0.7261 ± 0.051 kPa
308.3 K	0.8925 ± 0.063 kPa
309.3 K	0.9193 ± 0.065 kPa
312.3 K	1.147 ± 0.081 kPa and 1.048 ± 0.075 kPa
316.3 K	1.458 ± 0.1 kPa
320.4 K	1.764 ± 0.12 kPa
324.4 K	2.217 ± 0.16 kPa
328.4 K	2.678 ± 0.19 kPa
331.4 K	3.178 ± 0.22 kPa

CCCCC(=O)OC [methyl pentanoate]
Settings	vapor or sublimation pressure
274.9 K	0.3386 ± 0.024 kPa
275.2 K	0.3442 ± 0.024 kPa
278.2 K	0.4198 ± 0.03 kPa
279.4 K	0.4589 ± 0.033 kPa
281.2 K	0.5173 ± 0.037 kPa
282.6 K	0.5608 ± 0.04 kPa
284.2 K	0.6396 ± 0.047 kPa
284.3 K	0.6 ± 0.043 kPa
284.5 K	0.6182 ± 0.044 kPa
285.5 K	0.6907 ± 0.049 kPa
287.4 K	0.7539 ± 0.053 kPa
288.4 K	0.7888 ± 0.056 kPa and 0.7837 ± 0.056 kPa
288.5 K	0.8195 ± 0.059 kPa
288.7 K	0.8268 ± 0.061 kPa
289.2 K	0.873 ± 0.062 kPa
290.3 K	0.9304 ± 0.066 kPa
292.4 K	1.029 ± 0.072 kPa
293.3 K	1.09 ± 0.078 kPa
293.4 K	1.125 ± 0.081 kPa
294.5 K	1.227 ± 0.087 kPa
296.2 K	1.327 ± 0.094 kPa
297.5 K	1.511 ± 0.11 kPa
298.3 K	1.517 ± 0.11 kPa
299.2 K	1.615 ± 0.11 kPa and 1.582 ± 0.11 kPa
302.2 K	1.974 ± 0.14 kPa and 1.937 ± 0.14 kPa
305.2 K	2.273 ± 0.16 kPa
308.2 K	2.653 ± 0.19 kPa
311.2 K	3.11 ± 0.22 kPa

— the NIST ThermoML archive (doi:10.1016/j.fluid.2008.02.001)
